For orientation: IC50 means the concentration that gives 50% inhibition.

The target in the assay is T1, hCB1 (Homo sapiens, UniProt P21554).
T1 construct: made in house; host or cells: Sf9 insect cells (baculovirus), P2 membranes
T1 sequence (P21554 whole entry): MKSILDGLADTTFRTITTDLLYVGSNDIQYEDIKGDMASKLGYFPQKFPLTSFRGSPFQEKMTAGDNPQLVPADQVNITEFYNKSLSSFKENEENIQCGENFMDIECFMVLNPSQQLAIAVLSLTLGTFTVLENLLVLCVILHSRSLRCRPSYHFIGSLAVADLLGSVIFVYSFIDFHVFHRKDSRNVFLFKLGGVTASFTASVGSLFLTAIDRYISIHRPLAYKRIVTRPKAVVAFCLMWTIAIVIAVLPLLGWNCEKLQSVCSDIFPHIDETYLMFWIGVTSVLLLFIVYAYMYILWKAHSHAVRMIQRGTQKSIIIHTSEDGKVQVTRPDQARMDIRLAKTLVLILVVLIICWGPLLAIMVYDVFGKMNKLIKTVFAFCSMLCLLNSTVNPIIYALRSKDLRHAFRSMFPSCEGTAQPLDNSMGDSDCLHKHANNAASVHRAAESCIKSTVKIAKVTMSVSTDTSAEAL
Description: Agonist-induced GTP binding (GTPγ35S) assay at CB1, Example 8. The class given is biochemical. To be noted: IC50 at CB1, determined as described in Example 8; read-out: IC50. The method, boiled down: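 Antagonism read as inhibition of 1 nM CP55,940-stimulated GTPγ35S ([…]) binding, compounds at 10^−10 to 10^−5 M. Baculovirus-infected Sf9 membranes bearing hCB1 plus G-protein subunits, 60 min room-temperature incubation with 5 μM GDP. Filtration and scintillation counting; data as percent over basal.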
Take `Cc1ccc(NC(=O)Nc2ccc(OCC(C)O)cc2)cc1F` (stereo not shown) [Compound 763, 1-(3-fluoro-4-methylphenyl)-3-[4-(2-hydroxypropoxy)phenyl]urea]: the IC50 is under 2000 nM.

As to `CCOC(=O)c1ccc(NC(=O)Nc2ccccc2Br)cc1` [Compound 764, ethyl 4-({[(2-bromophenyl)amino]carbonyl}amino)benzoate], the 50% inhibitory concentration (IC50) was under 2000 nM.

On to `COC(=O)c1cccc(NC(=O)Nc2ccc(C)c(F)c2)c1` [Compound 765, methyl 3-({[(3-fluoro-4-methylphenyl)amino]carbonyl}amino)benzoate], for which the IC50 is under 2000 nM.

Turning to `CCOC(=O)c1cccc(NC(=O)Nc2ccc(C)c(F)c2)c1` [Compound 766, ethyl 3-({[(3-fluoro-4-methylphenyl)amino]carbonyl}amino)benzoate], the IC50 is under 2000 nM.

Consider `CCOC(=O)c1cccc(NC(=O)Nc2ccc(F)c(C)c2)c1` [Compound 767, ethyl 3-({[(4-fluoro-3-methylphenyl)amino]carbonyl}amino)benzoate], for which the IC50 was under 2000 nM.

Turning to `CCOC(=O)c1cccc(NC(=O)Nc2ccc(F)c(F)c2)c1` [Compound 768, ethyl 3-({[(3,4-difluorophenyl)amino]carbonyl}amino)benzoate], the IC50 was under 2000 nM.

For `COC(=O)c1cccc(NC(=O)Nc2ccc(C)c(Cl)c2)c1` [Compound 769, methyl 3-({[(3-chloro-4-methylphenyl)amino]carbonyl}amino)benzoate], the half-maximal inhibitory concentration (IC50) is under 2000 nM.

`CCOC(=O)c1cccc(NC(=O)Nc2ccc(C)c(Cl)c2)c1` [Compound 770, ethyl 3-({[(3-chloro-4-methylphenyl)amino]carbonyl}amino)benzoate]: the IC50 was under 2000 nM.

For `CCOC(=O)c1cccc(NC(=O)Nc2ccc(Cl)c(C)c2)c1` [Compound 771, ethyl 3-({[(4-chloro-3-methylphenyl)amino]carbonyl}amino)benzoate], the IC50 is under 2000 nM.

In the case of `Cc1ccc(NC(=O)Nc2ccc(C)c(F)c2)cc1F` [Compound 772, 1,3-bis(3-fluoro-4-methylphenyl)urea], the IC50 is under 2000 nM.

As to `Cc1ccc(NC(=O)Nc2ccc(F)c(F)c2)cc1F` [Compound 774, 1-(3,4-difluorophenyl)-3-(3-fluoro-4-methylphenyl)urea], the IC50 was under 2000 nM.

As for `O=C(Nc1ccc(F)c(F)c1)Nc1ccc2c(c1)CCC2` [Compound 775, 1-(3,4-difluorophenyl)-3-(2,3-dihydro-1H-inden-5-yl)urea], the half-inhibitory concentration (IC50) is under 2000 nM.

`Cc1ccc(NC(=O)Nc2ccc(C)c(Cl)c2)cc1F` [Compound 776, 1-(3-chloro-4-methylphenyl)-3-(3-fluoro-4-methylphenyl)urea]: the IC50 was under 2000 nM.

For `Cc1ccc(NC(=O)Nc2ccc(F)c(F)c2)cc1Cl` [Compound 777, 1-(3-chloro-4-methylphenyl)-3-(3,4-difluorophenyl)urea], the IC50 is under 2000 nM.

On to `CCOC(=O)c1ccc(NC(=O)Nc2ccc(F)cc2C(F)(F)F)cc1` [Compound 778, ethyl 4-[({[4-fluoro-2-(trifluoromethyl)phenyl]amino}carbonyl)amino]benzoate], for which the IC50 was under 2000 nM.

Consider `CCOC(=O)c1ccc(NC(=O)Nc2ccc(Cl)nc2)cc1` [Compound 779, ethyl 4-({[(6-chloropyridin-3-yl)amino]carbonyl}amino)benzoate], for which the IC50 is under 2000 nM.

Take `Cc1ccc(NC(=O)Nc2ccc(Cl)nc2)cc1C` [Compound 780, 1-(6-chloropyridin-3-yl)-3-(3,4-dimethylphenyl)urea]: the IC50 was under 2000 nM.

Regarding `Cc1ccc(NC(=O)Nc2ccc(Cl)nc2)cc1F` [Compound 781, 1-(6-chloropyridin-3-yl)-3-(3-fluoro-4-methylphenyl)urea], the IC50 was under 2000 nM.

Regarding `CCOC(=O)c1cccc(NC(=O)Nc2cccc(OC(F)F)c2)c1` [Compound 782, ethyl 3-[({[3-(difluoromethoxy)phenyl]amino}carbonyl)amino] benzoate], the half-maximal inhibitory concentration (IC50) was under 2000 nM.

Turning to `N#CCOc1ccc(NC(=O)Nc2cccc(OC(F)F)c2)cc1` [Compound 783, N-[4-(cyanomethoxy)phenyl]-N′-[3-(difluoromethoxy)phenyl]urea], the IC50 was under 2000 nM.

`O=C(Nc1ccc(Cn2cncn2)cc1)Nc1cccc(OC(F)F)c1` [Compound 784, N-[3-(difluoromethoxy)phenyl]-N′-[4-(1H-1,2,4-triazol-1-ylmethyl)phenyl]urea]: the IC50 was under 2000 nM.

With `CN(CCc1cccc(NC(=O)Nc2cccc(OC(F)F)c2)c1)S(C)(=O)=O` [Compound 785, N-(2-{3-[({[3-(difluoromethoxy)phenyl]amino}carbonyl)amino]phenyl}ethyl)-N-methylmethane-sulfonamide], the IC50 is under 2000 nM.

`O=C(Nc1ccc(Cn2ccnc2)cc1)Nc1ccc(OC(F)F)cc1` [Compound 786, N-[4-(difluoromethoxy)phenyl]-N′-[4-(1H-irnidazol-1-ylmethyl)phenyl]urea]: the IC50 is under 2000 nM.

Consider `O=C(Nc1ccc(Cn2cncn2)cc1)Nc1ccc(OC(F)F)cc1` [Compound 787, N-[4-(difluoromethoxy)phenyl]-N′-[4-(1H-1,2,4-triazol-1-ylmethyl)phenyl]urea], for which the IC50 was under 2000 nM.

For the molecule `CN1CCN(S(=O)(=O)c2cccc(NC(=O)Nc3cccc(OC(F)F)c3)c2)CC1` [Compound 788, N-[3-(difluoromethoxy)phenyl]-N′-{3-[(4-methyl-1-piperazinyl)sulfonyl]phenyl}urea], the IC50 is under 2000 nM.

For the molecule `O=C(Nc1ccc(S(=O)(=O)N2CCNCC2)cc1)Nc1cccc(OC(F)F)c1` [Compound 789, N-[3-(difluoromethoxy)phenyl]-N′-[4-(1-piperazinylsulfonyl)phenyl]urea], the IC50 is under 2000 nM.

On to `CN1CCN(S(=O)(=O)c2ccc(NC(=O)Nc3cccc(OC(F)F)c3)cc2)CC1` [Compound 790, N-[3-(difluoromethoxy)phenyl]-N′-{4-[(4-methyl-1-piperazinyl)sulfonyl]phenyl}urea], for which the IC50 was under 2000 nM.

Regarding `CCn1nnnc1-c1ccc(NC(=O)Nc2cccc(OC(F)F)c2)cc1` [Compound 791, N-[3-(difluoromethoxy)phenyl]-N′-[4-(1-ethyl-1H-tetrazol-5-yl)phenyl]urea], the IC50 is under 2000 nM.

As to `CCn1nnc(-c2ccc(NC(=O)Nc3cccc(OC(F)F)c3)cc2)n1` [Compound 792, N-[3-(difluoromethoxy)phenyl]-N′-[4-(2-ethyl-2H-tetrazol-5-yl)phenyl]urea], the IC50 was under 2000 nM.

As for `NC(=O)CN1CCN(S(=O)(=O)c2ccc(NC(=O)Nc3cccc(OC(F)F)c3)cc2)CC1` [Compound 793, 2-[4-({4-[({[3-(difluoromethoxy)phenyl]amino}carbonyl)amino]phenyl}sulfonyl)-1-piperazinyl] acetamide], the concentration for half-maximal inhibition (IC50) was under 2000 nM.

With `Cn1nnnc1-c1cccc(NC(=O)Nc2ccc(Cn3ccnn3)cc2)c1` [Compound 794, N-[3-(1-methyl-1H-tetrazol-5-yl)phenyl]-N′-[4-(1H-1,2,3-triazol-1-ylmethyl)phenyl]urea], the IC50 was under 2000 nM.

The record behind these values is patent US20090239841A1, “Diaryl Ureas as CB1 Antagonists” (priority 2004, published 2009).
